One may read the pIC50 as −log10 of the IC50, conventionally taken in molar units.

The target of experiment [1] is PI3Kγ (p110γ) Recombinant Human Protein (Homo sapiens (Human), UniProt P48736). Briefly: PI3K-γ scintillation proximity assay. Type of experiment: biochemical. To be noted: 20 μM PIP2, 2 μM ATP, 13 nM PI3Kγ, 120 min, room temperature. The gist of the method: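 Radiometric SPA in 20 mM MOPS pH 6.7, 10 mM MgCl2, 5 mM DTT, 0.03% CHAPS, 2% DMSO. Stopped with EDTA and WGA SPA beads for scintillation counting. IC50 fitted from % solvent-control activity versus log concentration.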
PI3Kγ (p110γ) Recombinant Human Protein, sequence (P48736 whole entry): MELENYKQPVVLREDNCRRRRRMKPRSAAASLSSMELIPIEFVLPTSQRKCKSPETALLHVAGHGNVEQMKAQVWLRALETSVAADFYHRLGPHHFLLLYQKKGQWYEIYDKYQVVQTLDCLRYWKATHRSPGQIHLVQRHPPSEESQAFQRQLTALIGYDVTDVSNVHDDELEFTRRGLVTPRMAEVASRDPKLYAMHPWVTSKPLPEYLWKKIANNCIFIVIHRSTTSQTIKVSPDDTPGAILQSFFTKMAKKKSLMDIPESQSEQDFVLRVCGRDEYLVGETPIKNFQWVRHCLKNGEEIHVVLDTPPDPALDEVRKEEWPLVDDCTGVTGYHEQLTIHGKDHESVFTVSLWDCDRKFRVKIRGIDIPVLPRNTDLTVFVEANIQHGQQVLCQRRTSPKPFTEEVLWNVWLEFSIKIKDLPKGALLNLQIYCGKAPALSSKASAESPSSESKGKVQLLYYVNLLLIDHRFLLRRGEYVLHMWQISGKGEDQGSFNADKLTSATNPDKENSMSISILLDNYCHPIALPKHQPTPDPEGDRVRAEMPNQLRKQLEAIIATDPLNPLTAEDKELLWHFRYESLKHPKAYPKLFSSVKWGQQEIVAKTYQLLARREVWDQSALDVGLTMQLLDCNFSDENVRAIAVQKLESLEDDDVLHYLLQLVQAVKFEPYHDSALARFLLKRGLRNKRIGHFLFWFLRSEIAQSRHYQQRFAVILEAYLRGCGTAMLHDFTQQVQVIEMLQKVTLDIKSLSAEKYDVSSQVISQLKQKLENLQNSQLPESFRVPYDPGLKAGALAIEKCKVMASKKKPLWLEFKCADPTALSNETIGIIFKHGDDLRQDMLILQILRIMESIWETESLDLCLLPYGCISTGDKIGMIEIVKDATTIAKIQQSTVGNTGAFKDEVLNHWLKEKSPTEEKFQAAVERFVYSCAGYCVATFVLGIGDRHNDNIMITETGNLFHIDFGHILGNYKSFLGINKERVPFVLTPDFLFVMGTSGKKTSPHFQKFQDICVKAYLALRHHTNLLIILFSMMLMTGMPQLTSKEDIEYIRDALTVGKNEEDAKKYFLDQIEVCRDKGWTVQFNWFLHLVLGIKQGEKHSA
(SPA uses beads or plates that emit light when radiolabelled molecules are held near them.)

Experiment [2] addresses PI3Kδ (p110δ/p85α) Recombinant Human Protein (Homo sapiens (Human), UniProt O00329). Briefly: PI3Kδ scintillation proximity assay. Type of experiment: biochemical. The settings on record: 20 μM PIP2, 2 μM ATP, 3.4 nM PI3Kδ, 120 min, room temperature; read-out: PI3Kδ IC50. The method in brief: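 Recombinant human p110δ/p85α was run at room temperature in 20 mM MOPS pH 6.7, 10 mM MgCl2, 5 mM DTT, 0.03% CHAPS, 2% DMSO. Substrates were 20 µM PIP2 and 2 µM ATP with [γ-33P]ATP. Product was captured overnight on WGA SPA beads and counted by scintillation; IC50 fitted from percent of solvent control versus log concentration.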

The subject of experiment [3] is Phosphorylated Ribosomal Protein S6 (RPS6) in THP-1 cells. Briefly: THP-1 RPS6 ELISA assay. The settings on record: Homo sapiens, THP-1, THP-1 cells, serum starved, 2 h compound, 10 nM MCP-1 for 15 min, phospho-RPS6 ELISA; read-out: PI3Kγ_THP1_RPS6_ELISA IC50. Format: cell-based, Human. The method in brief:
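Phospho-RPS6 in lysates measured by ELISA at 450 nm, corrected at 540 nm, after MCP-1 challenge (10 nM, 15 min) of THP-1 cells that were starved overnight and exposed to test compound for 2 h at 37° C, 2×10^5 cells/well. Curve fit of percent inhibition gives IC50.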

pIC50: −log10 of the molar value.

PI3Kδ (p110δ/p85α) Recombinant Human Protein, sequence (O00329 whole entry): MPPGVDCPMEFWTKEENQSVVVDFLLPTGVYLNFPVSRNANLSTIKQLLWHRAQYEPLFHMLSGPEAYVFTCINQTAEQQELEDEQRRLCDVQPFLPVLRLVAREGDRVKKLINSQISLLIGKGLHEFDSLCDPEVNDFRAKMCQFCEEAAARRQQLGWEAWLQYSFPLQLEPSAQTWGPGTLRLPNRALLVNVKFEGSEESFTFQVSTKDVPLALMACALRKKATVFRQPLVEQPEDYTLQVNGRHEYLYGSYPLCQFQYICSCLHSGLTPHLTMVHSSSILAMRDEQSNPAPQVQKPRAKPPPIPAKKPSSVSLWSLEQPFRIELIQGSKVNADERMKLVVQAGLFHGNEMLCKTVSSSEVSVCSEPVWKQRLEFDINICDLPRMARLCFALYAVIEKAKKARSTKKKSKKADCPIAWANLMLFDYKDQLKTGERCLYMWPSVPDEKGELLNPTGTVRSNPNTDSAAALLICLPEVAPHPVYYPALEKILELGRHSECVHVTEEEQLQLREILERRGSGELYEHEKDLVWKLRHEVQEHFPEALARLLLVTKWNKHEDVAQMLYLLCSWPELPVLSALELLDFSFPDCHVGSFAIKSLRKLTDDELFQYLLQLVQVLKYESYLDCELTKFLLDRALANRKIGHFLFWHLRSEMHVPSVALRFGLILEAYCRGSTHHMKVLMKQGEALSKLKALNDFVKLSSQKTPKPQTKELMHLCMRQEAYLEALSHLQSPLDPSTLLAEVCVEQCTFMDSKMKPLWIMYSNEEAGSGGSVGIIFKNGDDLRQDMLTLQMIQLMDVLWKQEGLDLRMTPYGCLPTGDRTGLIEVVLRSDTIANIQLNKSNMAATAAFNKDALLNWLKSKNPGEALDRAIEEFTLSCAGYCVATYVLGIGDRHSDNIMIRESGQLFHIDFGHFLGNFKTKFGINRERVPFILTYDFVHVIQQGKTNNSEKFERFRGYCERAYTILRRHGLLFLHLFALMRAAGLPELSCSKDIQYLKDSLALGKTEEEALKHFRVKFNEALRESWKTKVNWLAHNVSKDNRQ
PI3Kδ (p110δ/p85α) Recombinant Human Protein, sequence (P27986 whole entry partner): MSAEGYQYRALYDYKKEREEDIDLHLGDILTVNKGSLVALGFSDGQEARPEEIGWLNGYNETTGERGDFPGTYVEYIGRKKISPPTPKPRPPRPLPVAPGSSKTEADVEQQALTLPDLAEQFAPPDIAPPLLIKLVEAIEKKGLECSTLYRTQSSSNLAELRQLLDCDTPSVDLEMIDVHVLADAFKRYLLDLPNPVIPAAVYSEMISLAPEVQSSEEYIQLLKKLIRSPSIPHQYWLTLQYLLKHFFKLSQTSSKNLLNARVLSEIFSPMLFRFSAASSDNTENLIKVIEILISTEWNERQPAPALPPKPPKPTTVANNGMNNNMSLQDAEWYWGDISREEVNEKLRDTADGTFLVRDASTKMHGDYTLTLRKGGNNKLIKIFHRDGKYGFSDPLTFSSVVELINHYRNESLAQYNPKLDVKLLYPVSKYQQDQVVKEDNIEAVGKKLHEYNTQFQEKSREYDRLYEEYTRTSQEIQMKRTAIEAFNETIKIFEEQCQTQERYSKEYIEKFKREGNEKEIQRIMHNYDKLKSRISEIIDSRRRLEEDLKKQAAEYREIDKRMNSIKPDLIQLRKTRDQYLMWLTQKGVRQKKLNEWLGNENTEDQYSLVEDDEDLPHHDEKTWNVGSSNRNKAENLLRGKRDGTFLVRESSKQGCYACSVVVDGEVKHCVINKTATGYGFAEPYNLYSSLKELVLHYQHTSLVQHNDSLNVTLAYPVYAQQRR

`COc1ncccc1-c1cn2c(-c3cc(C(C)(O)C(F)F)ccc3C)cnc2c(N)n1` (stereo not drawn) [Example 33, 2-(3-(8-Amino-6-(2-methoxypyridin-3-yl)imidazo[1,2-a]pyrazin-3-yl)-4-methylphenyl)-1,1-difluoropropan-2-ol]: the results for the negative-log IC50 (pIC50) in experiment [1], in experiment [2] and in experiment [3] were greater than 7.00, 6.30 to 7.00 and greater than 7.00, respectively.

With `Cc1ncc(-c2cn3c(-c4cc(C(C)(O)C(F)F)ccc4C)cnc3c(N)n2)s1` (stereo not drawn) [Example 34, 2-(3-(8-Amino-6-(2-methylthiazol-5-yl)imidazo[1,2-a]pyrazin-3-yl)-4-methylphenyl)-1,1-difluoropropan-2-ol], the pIC50 is greater than 7.00 in experiment [1], greater than 7.00 in experiment [2] and 6.30 to 7.00 in experiment [3].

As to `Cc1ccc(C(C)(O)C(F)F)cc1-c1cnc2c(N)nc(-c3ccnc(C)c3F)cn12` (stereo not drawn) [Example 35, 2-(3-(8-Amino-6-(3-fluoro-2-methylpyridin-4-yl)imidazo[1,2-a]pyrazin-3-yl)-4-methylphenyl)-1,1-difluoropropan-2-ol], the pIC50 in experiment [1], in experiment [2] and in experiment [3] was greater than 7.00 throughout.

Regarding `Cc1ccc(C(C)(O)C(F)F)cc1-c1cnc2c(N)nc(-c3cnn(C)c3C)cn12` (stereo not drawn) [Example 36, 2-(3-(8-Amino-6-(1,5-dimethyl-1H-pyrazol-4-yl)imidazo[1,2-a]pyrazin-3-yl)-4-methylphenyl)-1,1-difluoropropan-2-ol], the results for the pIC50 in experiment [1], in experiment [2] and in experiment [3] were greater than 7.00, greater than 7.00 and 6.30 to 7.00, respectively.

On to `Cc1ccc(C(C)(O)C(F)F)cc1-c1cnc2c(N)nc(-c3cnn(C)c3)cn12` (stereo not drawn) [Example 37, 2-(3-(8-Amino-6-(1-methyl-1H-pyrazol-4-yl)imidazo[1,2-a]pyrazin-3-yl)-4-methylphenyl)-1,1-difluoropropan-2-ol], for which the pIC50 in experiment [1], in experiment [2] and in experiment [3] was greater than 7.00 throughout.

On to `Cc1ccc(C(C)(O)C(F)F)cc1-c1cnc2c(N)nc(-c3cn(C)nc3C)cn12` (stereo not drawn) [Example 38, 2-(3-(8-Amino-6-(1,3-dimethyl-1H-pyrazol-4-yl)imidazo[1,2-a]pyrazin-3-yl)-4-methylphenyl)-1,1-difluoropropan-2-ol], for which the negative-log IC50 (pIC50) in experiment [1], in experiment [2] and in experiment [3] was greater than 7.00 each time.

As to `Cc1ccc(C(C)(O)C(F)F)cc1-c1cnc2c(N)nc(-c3c(C)n[nH]c3C)cn12` (stereo not drawn) [Example 39, 2-(3-(8-Amino-6-(3,5-dimethyl-1H-pyrazol-4-yl)imidazo[1,2-a]pyrazin-3-yl)-4-methylphenyl)-1,1-difluoropropan-2-ol], the negative-log IC50 (pIC50) in experiment [1], in experiment [2] and in experiment [3] was greater than 7.00 in each case.

Consider `Cc1ccc(C(C)(O)C(F)F)cc1-c1cnc2c(N)nc(-c3cn[nH]c3)cn12` (stereo not drawn) [Example 40, 2-(3-(8-Amino-6-(1H-pyrazol-4-yl)imidazo[1,2-a]pyrazin-3-yl)-4-methylphenyl)-1,1-difluoropropan-2-ol], for which the pIC50 was greater than 7.00 in experiment [1], greater than 7.00 in experiment [2] and 6.30 to 7.00 in experiment [3].

Take `Cc1cc(-c2cn3c(-c4cc(C(C)(O)C(F)F)ccc4C)cnc3c(N)n2)n(C)n1` (stereo not drawn) [Example 41, 2-(3-(8-Amino-6-(1,3-dimethyl-1H-pyrazol-5-yl)imidazo[1,2-a]pyrazin-3-yl)-4-methylphenyl)-1,1-difluoropropan-2-ol]: the negative logarithm of the IC50 (pIC50) was greater than 7.00 in experiment [1], 6.30 to 7.00 in experiment [2] and 6.30 to 7.00 in experiment [3].

As to `Cc1ccc(C(C)(O)C(F)F)cc1-c1cnc2c(N)nc(-c3c(C)cnn3C)cn12` (stereo not drawn) [Example 42, 2-(3-(8-Amino-6-(1,4-dimethyl-1H-pyrazol-5-yl)imidazo[1,2-a]pyrazin-3-yl)-4-methylphenyl)-1,1-difluoropropan-2-ol], the negative logarithm of the IC50 (pIC50) is greater than 7.00 in experiment [1], 6.30 to 7.00 in experiment [2] and 6.30 to 7.00 in experiment [3].
